Assay results from US5478946A, “Guanidino compounds as regulators of nitric oxide synthase” (Abbott Laboratories, priority 1993, dated 1995).

Assays:
[1] = target: T1, Type I NOS (rat brain cytosol) (Rattus norvegicus, UniProt P29476); experiment: [3H]-Arginine to [3H]-Citrulline conversion, rat brain cytosol (Type I NOS); assay type: biochemical; conditions: for inhibition at 100 µM: read-out: Percent Inhibition of [3H]-Citrulline Formation, Rat Brain Cytosol; for IC50: read-out: Inhibition of [3H]-Citrulline Formation IC50, Rat Brain Cytosol
T1 construct: type I isozyme from rat brain cerebellum; from tissue; host or cells: rat brain (cytosol; cerebellum, phosphocellulose-purified)
From the text: (§1) The enzyme NO synthase produces EDRF/NO and citrulline from L-arginine (Bredt and Snyder, Proc. Nat'l. Acad. Sci. USA, 1989, 87: 682-5). The enzymatic generation of EDRF/NO is monitored by measuring the conversion of [^3 H]-L-arginine to [^3 H]-L-citrulline. An inhibitor of this specific enzymatic reaction lowers the conversion rate and, thus, the amount of [^3 H]-L-citrulline produced. Likewise, a compound acting as a substrate would compete with L-arginine and thereby lower the conversion rate.
(§2) The conversion of L-arginine to L-citrulline was assayed as reported previously (Bredt and Snyder, Proc. Nat'l Acad Sci USA, 1989, 87: 682-5) with minor modifications. Briefly, samples of partially purified NO synthase, 50-100 μg of protein or 20 μL of cytosol (alternatively cytosolic preparations from RAW 264.7 cells, a murine monocyte-macrophage cell line, induced for 16 hours with 10 μg/mL medium of Lipopolysaccharide (LPS), or partially purified (phosphocellulose column) type I isozyme from rat brain cerebellum, or partially purified isozyme III from bovine aortic endothelial cells (BAE cells)) were incubated for 20 minutes (3 minutes in the cases of purified enzyme preparations) at 25° C. in the presence of 10 μM L-[2,3-^3 H]arginine (55 Ci /mmol) (containing 34 nM (0.2 μCi)), 1 mM NADPH, and 2 Mm CaCl2 in a final volume of 100 μL. The reaction was stopped by adding 1 mL of stop buffer (2 mM EGTA, 2 mM EDTA 20 mM Hepes, pH 5.5). The total volume was then applied to a 1 mL Dowex AG 50 WX-8 column (Na^+ form, Bio-Rad) that had been pre-equilibrated with the stop buffer. L-[2,3-^3 H]Citrulline was eluted (2×) with 0.5 mL of stop buffer and radioactivity was determined by liquid scintillation counting.
(§3) The following Tables present data on the inhibition of [^3 H]-citrulline formation from [^3 H]-L-arginine by the compounds of the invention in various preparations representative of the isoforms of NOS, Types I, II, and III NOS as represented by rat brain cytosol, […] macrophage cell cytosol, and BAE homogenate preparation respectively.

[2] = target: T2, Type II NOS (RAW macrophage cell cytosol) (Mus musculus, UniProt P29477); experiment: [3H]-Arginine to [3H]-Citrulline conversion, RAW cell cytosol (Type II NOS); assay type: biochemical, murine; conditions: LPS induced; for inhibition at 100 µM: read-out: Percent Inhibition of [3H]-Citrulline Formation, RAW Cell Cytosol; for IC50: read-out: Inhibition of [3H]-Citrulline Formation IC50, RAW Cell cytosol
T2 construct: cytosolic preparations from RAW 264.7 cells; endogenous in cells; host or cells: RAW 264.7 cells, LPS-induced for 16 hours
From the text: as §1, §2, §3

[3] = target: T3, Type III NOS (BAE homogenate preparation) (Bos taurus, UniProt P29473); experiment: [3H]-Arginine to [3H]-Citrulline conversion, BAE homogenate preparation (Type III NOS); assay type: biochemical, bovine; conditions: for IC50: read-out: Inhibition of [3H]-Citrulline Formation IC50, BAE Preparation
T3 construct: partially purified isozyme III from bovine aortic endothelial cells (BAE cells); endogenous in cells; host or cells: bovine aortic endothelial (BAE) cells
From the text: as §1, §2, §3

| Compound | inhibition at 100 µM [1] | IC50 [1] | inhibition at 100 µM [2] | IC50 [2] | IC50 [3] | inhibition at 100 µM ([3]; 100 μM, read-out: Percent Inhibition of [3H]-Citrulline Formation, BAE Preparation) |
| --- | --- | --- | --- | --- | --- | --- |
| CC(C)(C)OC(=O)N1[C@@H](/C=C/CNC(=N)N[N+](=O)[O-])COC1(C)C [Example 1, 3-(1,1 -Dimethylethyl)-(S)-4-(3-N^G -nitroguanidinopropen-1, E-yl)-2,2-dimethyl-3-oxazolidinecarboxvlate] | 6% | > 100 µM | 0% | > 100 µM | > 100 µM |  |
| N=C(NC/C=C/[C@H](N)CO)N[N+](=O)[O-] [Example 2, N^G -Nitroguanidinyl-4(S)-amino-pent-2,E-ene-5-ol] | 80% | 40 µM | 14% | > 100 µM | 80 µM |  |
| CC(C)(C)OC(=O)N1[C@@H](/C=C/CNC(=N)NO)COC1(C)C [Example 7, 3-(1,1-Dimethylethyl)-(S)-4-(3-N^G -hydroxyguanidinopropen-1,E-yl)-2.2-dimethyl-3-oxazolidinecarboxylate] |  |  | 17% | > 100 µM |  |  |
| N=C(NO)NC/C=C/[C@H](N)CO [Example 8, N^G -Hydroxyguanidinyl-4(S)-amino-pent-2,E-ene-5-ol] | 23% | > 100 µM | 13% | > 100 µM |  |  |
| CNC(=N)NC/C=C/[C@H]1COC(C)(C)N1C(=O)OC(C)(C)C [Example 9, 3-(1,1-Dimethylethyl)-(S)-4-(3-N^G -methylguanidinoorooen-1,E-yl)-2.2-dimethyl-3-oxazolidinecarboxylate] | 51% | 80 µM | 47% | 100 µM |  |  |
| CNC(=N)NC/C=C/[C@@H]1COC(C)(C)N1C(=O)OC(C)(C)C [Example 18, 3-(1,1-Dimethylethyl)-(R)-4-(3-N^G -methylguanidinopropen-1,E-yl)-2,2-dimethyl-3-oxazolidinecarboxylate] | 17% | > 100 µM | 9% | > 100 µM |  |  |

Results, then the molecule that gave them:

| inhibition at 100 µM [1] | IC50 [1] | inhibition at 100 µM [2] | IC50 [2] | IC50 [3] | inhibition at 100 µM ([3]; 100 μM, read-out: Percent Inhibition of [3H]-Citrulline Formation, BAE Preparation) | Compound |
| --- | --- | --- | --- | --- | --- | --- |
| 35% | > 100 µM | 68% | 40 µM | > 100 µM |  | CC(C)(C)OC(=O)N1[C@@H](/C=C/CNC(=N)N)COC1(C)C [Example 3, 3-(1,1-Dimethylethyl)-(S)-4-(3-guanidinopropen-1,E-yl)-2,2-dimethyl-3-oxazolidinecarboxylate] |
|  |  | 50% | 100 µM | > 100 µM | 22% | N=C(N)NC/C=C/[C@H](N)CO [Example 4, 1-Guanidirlyl-4(S)-amino-pent-2,E-ene-5-ol] |
| 20% | > 100 µM | 41% | > 100 µM |  |  | CCNC(=N)NC/C=C/[C@H]1COC(C)(C)N1C(=O)OC(C)(C)C [Example 11, 3-(1,1-Dimethylethyl)-(S)-4-(3-N^G -ethylguanidinopropen-1,E-yl)-2,2-dimethyl-3-oxazolidinecarboxylate] |
| 18% | > 100 µM | 6% | > 100 µM |  |  | CNC(=N)NC/C=C/[C@@H](CO)NC(=O)OC(C)(C)C [Example 17, N^4, Boc-N^G -Methylguanidinyl-4(S)-Amino-pent-2,E-ene-5-ol] |
| 27% | > 100 µM | 45% | 100 µM |  |  | C/C(=C\[C@H]1COC(C)(C)N1C(=O)OC(C)(C)C)CNC(=N)N [Example 20, 3-(1,1-Dimethylethyl)-(S)-4-(3-guanidino-2-methyl-propen-1,E-yl)-2,2-dimethyl-3-oxazolidinecarboxylate] |
| 35% | > 100 µM | 20% | > 100 µM |  |  | CC(C)(C)OC(=O)N1[C@@H](/C=C(/CNC(=N)N)Cc2ccccc2)COC1(C)C [Example 24, 3-(1,1-Dimethylethyl)-(S)-4-(3,guanidino-2-benzyl-propen-1,E,yl)-2,2-dimethyl--oxazolidinecarboxylate] |
